Results on 9 molecules are retold here after ChEMBL document CHEMBL3991601, “The target landscape of clinical kinase drugs” (Science, 2017).

Active and inactive are the calls of the source. Cut-off read from the data, not from the text of the source, for most assays here: actives have a measured Kd and inactives only a lower limit. Where only a bound is given, the exact number is not on record here.

Broadly, the Kd is a measure of binding affinity in units of concentration.

In assay [1] the target is Structural maintenance of chromosomes protein 2 (Homo sapiens, UniProt O95347).
Chain of Structural maintenance of chromosomes protein 2 (O95347 whole entry): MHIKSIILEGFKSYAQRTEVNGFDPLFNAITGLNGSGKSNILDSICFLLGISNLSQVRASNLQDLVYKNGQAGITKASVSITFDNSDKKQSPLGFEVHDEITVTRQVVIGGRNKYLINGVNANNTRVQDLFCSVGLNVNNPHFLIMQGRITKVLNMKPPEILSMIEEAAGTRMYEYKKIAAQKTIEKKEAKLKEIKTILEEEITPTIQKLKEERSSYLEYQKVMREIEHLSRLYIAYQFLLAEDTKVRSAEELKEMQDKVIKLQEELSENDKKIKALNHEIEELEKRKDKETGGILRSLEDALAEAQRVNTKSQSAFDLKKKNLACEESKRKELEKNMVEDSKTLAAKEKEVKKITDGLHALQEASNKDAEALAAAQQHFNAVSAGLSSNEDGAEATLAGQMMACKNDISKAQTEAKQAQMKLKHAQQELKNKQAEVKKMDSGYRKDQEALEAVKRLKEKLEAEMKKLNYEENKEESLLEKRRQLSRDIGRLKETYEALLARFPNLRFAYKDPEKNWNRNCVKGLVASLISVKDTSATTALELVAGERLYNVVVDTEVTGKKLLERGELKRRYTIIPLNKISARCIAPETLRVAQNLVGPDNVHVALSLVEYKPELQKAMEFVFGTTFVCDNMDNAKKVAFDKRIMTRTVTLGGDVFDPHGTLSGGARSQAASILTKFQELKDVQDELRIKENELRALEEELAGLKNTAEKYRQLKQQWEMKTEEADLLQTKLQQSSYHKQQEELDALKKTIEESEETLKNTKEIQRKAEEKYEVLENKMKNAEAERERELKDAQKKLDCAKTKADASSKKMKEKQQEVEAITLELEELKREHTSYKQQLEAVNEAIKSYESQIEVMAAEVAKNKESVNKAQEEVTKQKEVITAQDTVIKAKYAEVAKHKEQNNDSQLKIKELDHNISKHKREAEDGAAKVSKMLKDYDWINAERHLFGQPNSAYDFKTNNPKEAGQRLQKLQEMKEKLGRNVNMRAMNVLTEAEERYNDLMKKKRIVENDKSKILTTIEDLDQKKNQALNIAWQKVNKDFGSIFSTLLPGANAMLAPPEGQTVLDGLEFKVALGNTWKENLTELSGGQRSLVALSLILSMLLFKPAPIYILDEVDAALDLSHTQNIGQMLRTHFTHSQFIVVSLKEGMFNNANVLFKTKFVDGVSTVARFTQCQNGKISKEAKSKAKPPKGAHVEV
The target in assay [2] is Tyrosine-protein kinase HCK (Homo sapiens, UniProt P08631).
Chain of Tyrosine-protein kinase HCK (P08631 whole entry): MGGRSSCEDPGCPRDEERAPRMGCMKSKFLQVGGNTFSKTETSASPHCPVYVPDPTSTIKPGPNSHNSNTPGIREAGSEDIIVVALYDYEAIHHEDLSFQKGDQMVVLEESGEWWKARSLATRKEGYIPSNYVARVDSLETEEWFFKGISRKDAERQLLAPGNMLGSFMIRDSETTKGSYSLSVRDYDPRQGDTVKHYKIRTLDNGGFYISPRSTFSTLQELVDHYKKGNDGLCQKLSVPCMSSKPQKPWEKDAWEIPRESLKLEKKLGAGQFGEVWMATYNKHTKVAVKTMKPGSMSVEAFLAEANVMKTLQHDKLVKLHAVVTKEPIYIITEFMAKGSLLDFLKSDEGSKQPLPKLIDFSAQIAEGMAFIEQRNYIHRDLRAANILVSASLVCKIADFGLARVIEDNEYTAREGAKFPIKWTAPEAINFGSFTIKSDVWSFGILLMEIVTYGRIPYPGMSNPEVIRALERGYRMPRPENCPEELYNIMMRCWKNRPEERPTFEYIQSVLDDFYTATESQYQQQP
The target in a further assay is T1, Ephrin type-B receptor 4 (Homo sapiens, UniProt P54760).
T1 sequence (P54760 whole entry): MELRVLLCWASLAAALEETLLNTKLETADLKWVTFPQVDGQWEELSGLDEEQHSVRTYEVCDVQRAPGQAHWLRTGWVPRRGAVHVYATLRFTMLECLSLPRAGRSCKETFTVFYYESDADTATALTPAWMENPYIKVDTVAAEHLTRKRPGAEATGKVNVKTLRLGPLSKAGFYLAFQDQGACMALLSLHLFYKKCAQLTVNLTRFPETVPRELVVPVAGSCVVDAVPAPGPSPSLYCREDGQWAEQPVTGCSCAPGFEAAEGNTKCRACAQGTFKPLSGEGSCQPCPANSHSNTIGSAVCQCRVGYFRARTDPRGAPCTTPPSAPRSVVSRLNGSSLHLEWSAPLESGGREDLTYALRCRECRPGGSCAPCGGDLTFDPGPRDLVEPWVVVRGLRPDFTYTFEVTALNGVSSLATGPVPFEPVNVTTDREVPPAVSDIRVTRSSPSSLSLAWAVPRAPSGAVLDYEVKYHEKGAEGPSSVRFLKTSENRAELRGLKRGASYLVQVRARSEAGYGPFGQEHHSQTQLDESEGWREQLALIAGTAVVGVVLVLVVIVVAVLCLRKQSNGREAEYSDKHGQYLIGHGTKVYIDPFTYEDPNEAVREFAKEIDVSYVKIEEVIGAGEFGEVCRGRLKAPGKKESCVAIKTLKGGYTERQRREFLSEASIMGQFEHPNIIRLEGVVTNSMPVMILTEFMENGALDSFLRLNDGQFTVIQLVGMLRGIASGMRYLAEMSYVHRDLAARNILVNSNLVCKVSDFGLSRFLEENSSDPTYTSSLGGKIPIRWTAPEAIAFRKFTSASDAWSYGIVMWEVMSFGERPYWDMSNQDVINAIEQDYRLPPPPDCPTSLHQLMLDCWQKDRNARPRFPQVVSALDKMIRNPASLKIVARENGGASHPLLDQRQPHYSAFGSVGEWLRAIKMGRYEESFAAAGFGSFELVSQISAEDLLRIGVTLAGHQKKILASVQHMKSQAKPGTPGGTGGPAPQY

Assay [3] concerns the target RAC-gamma serine/threonine-protein kinase (Homo sapiens, UniProt Q9Y243).
The target of assay [4] is T2, Serine/threonine-protein kinase Nek2 (Homo sapiens, UniProt P51955).
T2 sequence (P51955 whole entry): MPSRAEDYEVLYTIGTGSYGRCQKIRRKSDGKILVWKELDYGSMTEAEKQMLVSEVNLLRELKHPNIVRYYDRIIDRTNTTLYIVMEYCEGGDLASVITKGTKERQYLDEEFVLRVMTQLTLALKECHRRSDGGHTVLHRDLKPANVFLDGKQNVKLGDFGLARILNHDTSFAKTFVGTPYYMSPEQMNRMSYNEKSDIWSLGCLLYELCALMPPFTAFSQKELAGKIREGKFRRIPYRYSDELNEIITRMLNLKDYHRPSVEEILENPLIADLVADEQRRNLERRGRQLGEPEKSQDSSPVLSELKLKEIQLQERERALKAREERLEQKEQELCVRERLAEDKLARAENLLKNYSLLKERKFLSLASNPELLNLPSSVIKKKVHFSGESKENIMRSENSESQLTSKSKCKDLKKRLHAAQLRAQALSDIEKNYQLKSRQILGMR

Assay [5] has as its target Mitogen-activated protein kinase 3 (Homo sapiens, UniProt P27361).
Assay [6] addresses T3, Ferrochelatase, mitochondrial (Homo sapiens, UniProt P22830).
T3 sequence (P22830 whole entry): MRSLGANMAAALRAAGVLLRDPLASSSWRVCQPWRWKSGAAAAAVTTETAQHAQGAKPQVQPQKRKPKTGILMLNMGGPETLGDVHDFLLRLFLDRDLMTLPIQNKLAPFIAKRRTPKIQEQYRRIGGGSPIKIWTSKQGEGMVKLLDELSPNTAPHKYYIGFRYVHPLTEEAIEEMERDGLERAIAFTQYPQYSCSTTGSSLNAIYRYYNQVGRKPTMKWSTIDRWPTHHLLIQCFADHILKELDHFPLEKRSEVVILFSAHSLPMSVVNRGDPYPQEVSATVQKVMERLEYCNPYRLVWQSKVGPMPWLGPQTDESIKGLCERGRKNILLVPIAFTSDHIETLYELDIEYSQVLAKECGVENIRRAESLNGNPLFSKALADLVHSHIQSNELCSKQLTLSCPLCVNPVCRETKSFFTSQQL

Assay [7] deals with NADH dehydrogenase [ubiquinone] 1 alpha subcomplex subunit 13 (Homo sapiens, UniProt Q9P0J0).
Chain of NADH dehydrogenase [ubiquinone] 1 alpha subcomplex subunit 13 (Q9P0J0 whole entry, one chain of several): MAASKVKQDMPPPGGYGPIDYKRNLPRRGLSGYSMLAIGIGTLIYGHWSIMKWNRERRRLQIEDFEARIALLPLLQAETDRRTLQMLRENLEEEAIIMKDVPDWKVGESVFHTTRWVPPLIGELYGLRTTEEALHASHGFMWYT
For assay [8], the target named is Eukaryotic translation initiation factor 2-alpha kinase 1 (Homo sapiens, UniProt Q9BQI3).
Chain of Eukaryotic translation initiation factor 2-alpha kinase 1 (Q9BQI3 whole entry): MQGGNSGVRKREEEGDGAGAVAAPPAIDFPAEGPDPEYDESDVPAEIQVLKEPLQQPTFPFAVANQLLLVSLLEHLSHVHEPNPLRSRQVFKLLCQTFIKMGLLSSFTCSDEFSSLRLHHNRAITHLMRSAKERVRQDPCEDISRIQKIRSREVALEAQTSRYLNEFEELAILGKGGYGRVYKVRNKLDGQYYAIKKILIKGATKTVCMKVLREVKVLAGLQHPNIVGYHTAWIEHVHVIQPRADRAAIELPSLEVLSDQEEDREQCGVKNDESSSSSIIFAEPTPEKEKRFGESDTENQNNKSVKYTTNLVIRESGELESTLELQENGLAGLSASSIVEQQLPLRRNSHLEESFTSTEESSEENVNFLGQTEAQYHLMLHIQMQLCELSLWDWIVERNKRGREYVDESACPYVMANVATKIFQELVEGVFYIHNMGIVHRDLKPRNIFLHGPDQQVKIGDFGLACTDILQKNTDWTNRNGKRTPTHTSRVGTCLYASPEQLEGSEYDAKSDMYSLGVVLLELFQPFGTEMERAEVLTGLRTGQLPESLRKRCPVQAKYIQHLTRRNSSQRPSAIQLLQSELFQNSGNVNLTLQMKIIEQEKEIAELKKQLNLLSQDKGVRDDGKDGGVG
The target in assay [9] is Tyrosine-protein kinase BTK (Homo sapiens, UniProt Q06187).
Chain of Tyrosine-protein kinase BTK (Q06187 whole entry): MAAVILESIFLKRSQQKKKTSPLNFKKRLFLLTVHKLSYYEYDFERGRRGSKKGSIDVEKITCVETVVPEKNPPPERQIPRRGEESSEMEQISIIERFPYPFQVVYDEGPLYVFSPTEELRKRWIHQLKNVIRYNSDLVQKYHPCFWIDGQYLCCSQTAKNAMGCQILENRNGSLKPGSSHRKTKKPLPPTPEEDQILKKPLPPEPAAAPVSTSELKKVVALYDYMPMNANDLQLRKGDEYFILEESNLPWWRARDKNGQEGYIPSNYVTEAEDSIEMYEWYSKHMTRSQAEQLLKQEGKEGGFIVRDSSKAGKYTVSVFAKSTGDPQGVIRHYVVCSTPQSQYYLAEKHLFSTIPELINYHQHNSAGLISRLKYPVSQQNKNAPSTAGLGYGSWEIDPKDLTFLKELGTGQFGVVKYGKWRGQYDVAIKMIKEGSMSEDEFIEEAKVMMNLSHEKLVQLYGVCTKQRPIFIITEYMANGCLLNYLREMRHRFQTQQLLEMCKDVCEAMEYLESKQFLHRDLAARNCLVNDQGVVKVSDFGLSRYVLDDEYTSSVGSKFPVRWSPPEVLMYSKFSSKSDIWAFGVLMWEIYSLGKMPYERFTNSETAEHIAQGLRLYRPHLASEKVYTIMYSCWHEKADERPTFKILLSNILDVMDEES
Assay [10] deals with Putative heat shock protein HSP 90-beta 2 (Homo sapiens, UniProt Q58FF8).
Chain of Putative heat shock protein HSP 90-beta 2 (Q58FF8 whole entry): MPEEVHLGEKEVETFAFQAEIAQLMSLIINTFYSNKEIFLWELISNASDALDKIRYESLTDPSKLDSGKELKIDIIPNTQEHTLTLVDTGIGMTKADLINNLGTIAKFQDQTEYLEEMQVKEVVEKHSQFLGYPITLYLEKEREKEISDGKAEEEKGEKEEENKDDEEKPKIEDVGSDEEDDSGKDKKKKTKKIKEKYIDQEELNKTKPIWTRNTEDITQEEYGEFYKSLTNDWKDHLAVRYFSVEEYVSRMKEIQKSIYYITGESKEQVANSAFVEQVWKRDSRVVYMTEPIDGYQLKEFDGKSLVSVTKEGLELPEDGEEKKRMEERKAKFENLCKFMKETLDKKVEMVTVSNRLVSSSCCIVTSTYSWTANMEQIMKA
In assay [11] the target is T4, EKC/KEOPS complex subunit TP53RK (Homo sapiens, UniProt Q96S44).
T4 sequence (Q96S44 whole entry): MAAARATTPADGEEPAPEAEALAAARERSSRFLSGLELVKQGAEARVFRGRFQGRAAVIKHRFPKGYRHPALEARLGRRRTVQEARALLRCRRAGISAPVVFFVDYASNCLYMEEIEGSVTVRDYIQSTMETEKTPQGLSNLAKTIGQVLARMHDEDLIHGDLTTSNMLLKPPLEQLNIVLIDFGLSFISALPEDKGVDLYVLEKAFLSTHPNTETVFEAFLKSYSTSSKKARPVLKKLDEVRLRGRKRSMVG

The target in assay [12] is Ribosomal protein S6 kinase alpha-5 (Homo sapiens, UniProt O75582).
Note: in the data inactive means no Kd found up to 30 µM.

Chain of Mitogen-activated protein kinase 3 (P27361 whole entry): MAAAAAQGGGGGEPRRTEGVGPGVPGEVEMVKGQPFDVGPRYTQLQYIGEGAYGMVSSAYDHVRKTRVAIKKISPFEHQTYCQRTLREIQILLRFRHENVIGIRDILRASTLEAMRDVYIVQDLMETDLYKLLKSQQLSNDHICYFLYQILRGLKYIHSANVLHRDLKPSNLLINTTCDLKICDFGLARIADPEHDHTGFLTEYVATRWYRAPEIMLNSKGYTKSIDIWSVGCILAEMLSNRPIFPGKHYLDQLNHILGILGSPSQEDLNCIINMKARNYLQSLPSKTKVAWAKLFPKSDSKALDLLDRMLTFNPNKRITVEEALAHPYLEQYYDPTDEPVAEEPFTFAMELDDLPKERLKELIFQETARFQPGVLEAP
Chain of RAC-gamma serine/threonine-protein kinase (Q9Y243 whole entry): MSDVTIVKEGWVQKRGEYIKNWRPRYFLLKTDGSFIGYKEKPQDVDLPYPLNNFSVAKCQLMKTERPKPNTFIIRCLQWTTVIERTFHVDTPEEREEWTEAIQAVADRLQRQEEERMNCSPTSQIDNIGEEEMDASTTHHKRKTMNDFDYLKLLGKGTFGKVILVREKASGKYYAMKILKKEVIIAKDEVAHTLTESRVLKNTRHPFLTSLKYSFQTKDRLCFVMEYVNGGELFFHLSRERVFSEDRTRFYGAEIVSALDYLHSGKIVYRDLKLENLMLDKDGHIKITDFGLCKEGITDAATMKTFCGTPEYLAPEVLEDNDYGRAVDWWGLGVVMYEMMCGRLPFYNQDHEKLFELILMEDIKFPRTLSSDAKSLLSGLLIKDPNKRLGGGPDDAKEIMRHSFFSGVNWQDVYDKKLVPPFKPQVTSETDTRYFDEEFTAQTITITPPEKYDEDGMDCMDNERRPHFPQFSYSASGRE

For the molecule `C=CCN(/C=C1/C(=O)O[C@H](COC)[C@@]2(C)C1=C(O)C(=O)C1=C2[C@H](OC(C)=O)C[C@]2(C)C(=O)CC[C@@H]12)CC=C` [SONOLISIB], the Kd (in assay [1]; in [2]; on Ephrin type-B receptor 4; in assay [3]; in [4]; in assay [5]) was > 30 µM (inactive) in each case. Also, the Kd in assay [6], in [7], in assay [8], in assay [9], in assay [10] and in [11] was > 30 µM (inactive) throughout. The Kd in assay [12] was > 30 µM (inactive).
As to `O=C(NC[C@H](O)CO)c1ccncc1Nc1ccc(I)cc1F` [PIMASERTIB], the Kd (in assay [1]; in [2]; at Ephrin type-B receptor 4; in [3]; in assay [4]; in assay [5]) was > 30 µM (inactive) each time. In addition, the Kd in [6], in assay [7], in assay [8], in assay [9], in assay [10] and in assay [11] was > 30 µM (inactive) throughout. Moreover, the Kd in [12] was > 30 µM (inactive).
Turning to `CCc1cc2c(cc1N1CCC(N3CCOCC3)CC1)C(C)(C)c1[nH]c3cc(C#N)ccc3c1C2=O` [ALECTINIB], the Kd (in assay [1]; in [2]; on Ephrin type-B receptor 4; in assay [3]; in assay [4]; in [5]) was > 30 µM (inactive) throughout. Moreover, the Kd in assay [6], in [7], in assay [8], in assay [9], in [10] and in assay [11] was > 30 µM (inactive) in each case. Further, the Kd in assay [12] was > 30 µM (inactive).
On to `COc1cc(Nc2ncc(F)c(Nc3ccc4c(n3)N(COP(=O)(O)O)C(=O)C(C)(C)O4)n2)cc(OC)c1OC` [FOSTAMATINIB], for which the Kd (in assay [1]; in assay [2]; on Ephrin type-B receptor 4; in assay [3]; in assay [4]; in assay [5]) was > 30 µM (inactive) in each case. The Kd in [6], in assay [7], in assay [8], in assay [9], in assay [10] and in [11] was > 30 µM (inactive) each time. Further, the Kd in assay [12] is > 30 µM (inactive).
Regarding `CN1CCN(c2nc(C3=C(c4c[nH]c5ccccc45)C(=O)NC3=O)c3ccccc3n2)CC1` [SOTRASTAURIN], the Kd (in assay [1]; in [2]; on Ephrin type-B receptor 4; in assay [3]; in assay [4]; in [5]) was > 30 µM (inactive) throughout. Also, the Kd in assay [6], in assay [7], in [8], in assay [9], in [10] and in assay [11] was > 30 µM (inactive) throughout. In addition, in [12], the Kd is > 30 µM (inactive).
Consider `COc1cccc2cc(-c3nc([C@H]4CC[C@H](C(=O)O)CC4)n4ncnc(N)c34)[nH]c12` [OSI-027], for which the Kd (in assay [1]; in assay [2]; at Ephrin type-B receptor 4; in [3]; in assay [4]; in assay [5]) was > 30 µM (inactive) in each case. The Kd in assay [6] was 12.6 µM (active); in assay [7] it was > 30 µM (inactive); in assay [8] it was > 30 µM (inactive); in [9] it was > 30 µM (inactive); in assay [10], > 30 µM (inactive); in [11] it was > 30 µM (inactive). The Kd in [12] was > 30 µM (inactive).
With `COc1ccc2c(OCc3nnc4ccc(-c5ccccc5)nn34)ccnc2c1` [AMG-208], the Kd (in [1]; in assay [2]; at Ephrin type-B receptor 4; in assay [3]; in assay [4]; in assay [5]) was > 30 µM (inactive) each time. The Kd in assay [6], in assay [7], in [8], in [9], in assay [10] and in [11] was > 30 µM (inactive) throughout. Further, in [12], the Kd was > 30 µM (inactive).
Take `COc1cc2ncnc(Nc3ccc(F)c(Cl)c3)c2cc1NC(=O)/C=C/CN1CCCCC1` [DACOMITINIB ANHYDROUS]: the Kd (in [1]; in [2]; on Ephrin type-B receptor 4; in assay [3]; in assay [4]; in assay [5]) was > 30 µM (inactive) each time. Besides, the Kd in assay [6], in assay [7], in assay [8], in assay [9], in [10] and in [11] was > 30 µM (inactive) in each case. For the same molecule, the Kd in assay [12] was > 30 µM (inactive).
With `CC[C@@](C)(Nc1ccnc(-c2c[nH]c3ncccc23)n1)C(=O)NCC(F)(F)F` [DECERNOTINIB], the Kd (in [1]; in [2]; on Ephrin type-B receptor 4; in assay [3]; in assay [4]; in assay [5]) was > 30 µM (inactive) each time. The Kd in [6] is > 30 µM (inactive); in assay [7], > 30 µM (inactive); in assay [8], > 30 µM (inactive); in [9], > 30 µM (inactive); in [10], > 30 µM (inactive); in [11] it was 2.83 µM (active). In assay [12], the Kd was > 30 µM (inactive).
